Laboratory results as given in patent EP1980248B1, “Composition for treating cancer cells and synthetic method for the same” (Kaohsiung Medical University, priority 2007, dated 2008).
In brackets after ≈: the same amount, converted by molar mass.

How the values were obtained:
Test in all cases: Cytotoxicity assay, MTT colorimetric method
Type in all cases: cell-based
[1] = test system: A549; settings: A549 human lung cancer cell line; 72 hrs treatment; cell viability by MTT
Experimental: (§1) Human liver (HepG2 and Hep3B), breast (MCF-7 and MDA-MB-231), and lung (A549) cancer cell lines were propagated in RPMI-1640 medium supplement with 10% (v/v) FBS, 100 U/mL penicillin and 100 µg/mL streptomycin at 37°C in a humidified atmosphere of 5% CO2 and 95% air. The culturing medium is changed every three days. Upon confluency, cells were subcultured to confluency, and used for experiments. The experimental period is determined according to the aim of experiment.
(§2) Cytotoxicity is measured by the MTT colorimetric method. Cells were seeded at densities of 5,000 - 10,000 cells/well in 96-well tissue culture plates. On day two, cells are treated with test compounds for another 72 hrs. After drug treatment, attached cells were incubated with MTT (0.5 mg/mL) for 1 hr and subsequently solubilized in DMSO. The absorbency at 550 nm is then measured using a microplate reader. The IC50 is the concentration of agent that reduces the cell viability by 50% under the experimental conditions, and the cytotoxic compound, Doxorubicin, is used as a positive control.

[2] = test system: MCF-7; settings: MCF-7 human breast cancer cell line, 72 hrs treatment, cell viability by MTT; for IC50: MCF7
Experimental: as §1, §2

[3] = test system: HepG2; settings: HepG2 human liver cancer cell line; 72 hrs treatment; cell viability by MTT
Experimental: as §1, §2

[4] = test system: Hep3B; settings: Hep3B human liver cancer cell line; 72 hrs treatment; cell viability by MTT
Experimental: as §1, §2

[5] = test system: MDA-MB-231; settings: MDA-MB-231 human breast cancer cell line; 72 hrs treatment; cell viability by MTT
Experimental: as §1, §2

COC1(c2cc(=O)c3c(C)cccc3o2)C=CC(=O)C=C1 [10b, 1'-methoxy-5-methylprotoflavonone]
IC50 A549 [1]: 16.36 µg/mL (≈ 58 µM) | IC50 MCF-7 [2]: 1.55 µg/mL (≈ 5.49 µM) | IC50 HepG2 [3]: 7.64 µg/mL (≈ 27.1 µM) | IC50 Hep3B [4]: 0.66 µg/mL (≈ 2.34 µM) | IC50 MDA-MB-231 [5]: 0.54 µg/mL (≈ 1.91 µM)

COc1cccc2c1C(=O)c1c(O)c3c(c(O)c1C2=O)C[C@@](O)(C(=O)CO)C[C@@H]3O[C@H]1C[C@H](N)[C@H](O)[C@H](C)O1 [Doxorubicin, reference compound]
IC50 [1]: 0.21 µg/mL (≈ 0.386 µM) | IC50 [2]: 0.43 µg/mL (≈ 0.791 µM) | IC50 [3]: 0.29 µg/mL (≈ 0.534 µM) | IC50 [4]: 0.36 µg/mL (≈ 0.662 µM) | IC50 [5]: 0.08 µg/mL (≈ 0.147 µM)

O=C1C=CC(O)(c2cc(=O)c3ccccc3o2)C=C1 [compound 8a, 2-(1-hydroxy-4-oxocyclohexa-2,5-dienyl)-4H-chromen-4-one]
IC50 [1]: 1.33 µg/mL (≈ 5.23 µM) | IC50 [2]: 0.44 µg/mL (≈ 1.73 µM) | IC50 [3]: 1.71 µg/mL (≈ 6.73 µM) | IC50 [4]: 0.32 µg/mL (≈ 1.26 µM) | IC50 [5]: 0.18 µg/mL (≈ 0.708 µM)

COC1(c2cc(=O)c3ccccc3o2)C=CC(=O)C=C1 [compound 8b, 1'-methoxyprotoflavonoen]
IC50 [1]: > 20 µg/mL | IC50 [2]: 2.14 µg/mL (≈ 7.98 µM) | IC50 [3]: 10.9 µg/mL (≈ 40.8 µM) | IC50 [4]: 1.45 µg/mL (≈ 5.41 µM) | IC50 [5]: 1.47 µg/mL (≈ 5.48 µM)

O=C1C=CC(O)(c2cc(=O)c3c(O)cccc3o2)C=C1 [compound 10a, 2-(1-hydroxy-4-oxocyclohexa-2,5-dienyl)-5-hydroxy-4H-chromen-4-one]
IC50 [1]: 1.37 µg/mL (≈ 5.07 µM) | IC50 [2]: 0.93 µg/mL (≈ 3.44 µM) | IC50 [3]: 1.34 µg/mL (≈ 4.96 µM) | IC50 [4]: 0.35 µg/mL (≈ 1.3 µM) | IC50 [5]: 0.18 µg/mL (≈ 0.666 µM)

O=C1C=CC(O)(c2cc(=O)c3c(ccc4ccccc43)o2)C=C1 [compound 15a, 3-(1-hydroxy-4-oxocyclohexa-2,5-dienyl)-1H-benzo[f]chromen-1-one]
IC50 [1]: 0.55 µg/mL (≈ 1.81 µM) | IC50 [2]: 0.2 µg/mL (≈ 0.657 µM) | IC50 [3]: 1.08 µg/mL (≈ 3.55 µM) | IC50 [4]: 0.09 µg/mL (≈ 0.296 µM) | IC50 [5]: 0.12 µg/mL (≈ 0.394 µM)

COC1(c2cc(=O)c3c(ccc4ccccc43)o2)C=CC(=O)C=C1 [compound 15b]
IC50 [1]: 8.2 µg/mL (≈ 25.8 µM) | IC50 [2]: 0.86 µg/mL (≈ 2.7 µM) | IC50 [3]: 3.16 µg/mL (≈ 9.93 µM) | IC50 [4]: 0.35 µg/mL (≈ 1.1 µM) | IC50 [5]: 0.37 µg/mL (≈ 1.16 µM)

COc1cc(O)c2c(=O)cc(C3(O)C=CC(=O)C=C3)oc2c1 [compound 18a, 5-hydroxy-2-(1-hydroxy-4-oxocyclohexa-2,5-dienyl)-7-methoxy-4H-chromen-4-one]
IC50 [1]: 0.93 µg/mL (≈ 3.1 µM) | IC50 [2]: 0.51 µg/mL (≈ 1.7 µM) | IC50 [3]: 0.17 µg/mL (≈ 0.566 µM) | IC50 [4]: 0.2 µg/mL (≈ 0.666 µM) | IC50 [5]: 0.13 µg/mL (≈ 0.433 µM)

O=C1C=CC(O)(c2cc(=O)c3c(O)cc(O)cc3o2)C=C1 [protoapigenone]
IC50 [1]: 3.96 µg/mL (≈ 13.8 µM) | IC50 [2]: 1.07 µg/mL (≈ 3.74 µM) | IC50 [3]: 2.32 µg/mL (≈ 8.11 µM) | IC50 [4]: 0.65 µg/mL (≈ 2.27 µM) | IC50 [5]: 0.41 µg/mL (≈ 1.43 µM)
